Measured values as given in patent publication US10987349B2, “Antitumor agent and bromodomain inhibitor” (FUJIFILM Corporation, priority 2016, dated 2021).

Key:
BRD4 BD1 = target: T1, BRD4 BD1 (Homo sapiens, UniProt O60885); assay: Binding assay, BRD4 BD1 to acetylated histone H4 Peptide-Biotin (EPIgeneous Binding Domain Kit A); conditions: test compound at 300 nmol/L; for inhibition at 0.3 µM: read-out: Binding inhibition percentage BRD4 BD1
T1 construct: BRD2 BD1, BRD3 BD1 and BRD4 BD1 (Cisbio); purchased Cisbio
Method: (§1) BRD2 BD1, BRD3 BD1 and BRD4 BD1 (Cisbio), [Lys(Ac)5/8/12/16]-Histone H4(1-25)-GSGSK (Biotin) (hereinafter referred to as “Peptide-Biotin,” AnaSpec), and EPIgeneous (registered trademark) Binding Domain Kit A (Cisbio) were used to carry out an assay. That is to say, per well, 4 μL of BRD2 BD1, BRD3 BD1 or BRD4 BD1, which was adjusted to 20 nmol/L with Diluent buffer; 4 μL of 25 nmol/L Peptide-Biotin; 2 μL of Dilution buffer (Cisbio) containing dimethyl sulfoxide (DMSO) or a test compound that was serially diluted with DMSO; 5 μL of 2.5 nmol/L Streptavidin-d2; and 5 μL of Anti-Gst-Eu+^3+ Cryptate Conjugate 50-fold diluted with Detection Buffer were added to a 384-well plate (Corning).
(§2) The obtained mixture was left at rest at room temperature for 20 hours, and thereafter, the fluoresence intensity at 665 nm and 620 nm was measured using Envision plate reader (Perkin Elmer), so that the inhibition percentage (%) of the test compound against the binding of a bromodomain in a bromodomain-containing protein to Peptide-Biotin was calculated. Binding inhibition percentage (%)=[1−{(fluorescence intensity at 665 nm of test compound−added well)/(fluorescence intensity at 620 nm of test compound−added well)}/{(fluorescence intensity at 665 nm of DMSO−added well)/(fluorescence intensity at 665 nm of DMSO−added well)}]×100
(§3) Moreover, using Graphpad prism 5 (GraphPad software), 50% inhibitory concentration [IC50 (nmol/L)] was calculated according to a non-linear regression analysis (log (inhibitor) vs. response—Variable slope (four parameters)).
(§4) Regarding other test compounds, each compound was diluted with DMSO to a final concentration of 300 nmol/L by the same method as that described above, and the binding inhibition percentage (%) of each test compound at 300 nmol/L against the binding of bromodomain in a bromodomain-containing protein to acetylated histone was calculated.

BRD2 BD1 = target: T2, BRD2 BD1 (Homo sapiens, UniProt P25440); assay: Binding assay, BRD2 BD1 to acetylated histone H4 Peptide-Biotin (EPIgeneous Binding Domain Kit A); conditions: test compound at 300 nmol/L; for inhibition at 0.3 µM: read-out: Binding inhibition percentage BRD2 BD1
T2 construct: BRD2 BD1, BRD3 BD1 and BRD4 BD1 (Cisbio); purchased Cisbio
T2 sequence (P25440 74-180 limits assumed): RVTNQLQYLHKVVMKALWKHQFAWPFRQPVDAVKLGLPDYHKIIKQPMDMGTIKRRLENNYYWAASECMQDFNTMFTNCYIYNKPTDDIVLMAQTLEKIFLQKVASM
Method: as §1, §2, §3, §4

BRD4 BD2 = target: T3, BRD4 BD2 (Homo sapiens, UniProt O60885); assay: Binding assay, BRD4 BD2 to acetylated histone H4 Peptide-Biotin (EPIgeneous Binding Domain Kit B); conditions: test compound at 300 nmol/L; for inhibition at 0.3 µM: read-out: Binding inhibition percentage BRD4 BD2
T3 construct: BRD2 BD2, BRD3 BD2 and BRD4 BD2 (Cisbio); purchased Cisbio
Method: (§5) Moreover, BRD2 BD2, BRD3 BD2 and BRD4 BD2 (Cisbio), Peptide-Biotin (AnaSpec), and EPIgeneous (registered trademark) Binding Domain Kit B (Cisbio) were used to carry out an assay. That is, per well, 4 μL of BRD2 BD2, BRD3 BD2 or BRD4 BD2, which was adjusted to 20 nmol/L with Diluent buffer; 4 μL of 250 nmol/L Peptide-Biotin; 2 μL of Dilution buffer (Cisbio) containing DMSO or a test compound that was serially diluted with DMSO; 5 μL of 25 nmol/L Streptavidin-XL665; 5 μL of Anti-Gst-Eu+^3+ Cryptate Conjugate 50-fold diluted with Detection Buffer were added to a 384-well plate (Corning).
as §2, §3, §4

BRD2 BD2 = target: T4, BRD2 BD2 (Homo sapiens, UniProt P25440); assay: Binding assay, BRD2 BD2 to acetylated histone H4 Peptide-Biotin (EPIgeneous Binding Domain Kit B); conditions: test compound at 300 nmol/L; for inhibition at 0.3 µM: read-out: Binding inhibition percentage BRD2 BD2
T4 construct: BRD2 BD2, BRD3 BD2 and BRD4 BD2 (Cisbio); purchased Cisbio
T4 sequence (P25440 344-453 limits assumed): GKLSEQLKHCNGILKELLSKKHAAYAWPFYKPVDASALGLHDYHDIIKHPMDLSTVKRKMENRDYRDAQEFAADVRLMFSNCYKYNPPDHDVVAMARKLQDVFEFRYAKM
Method: as §5, §2, §3, §4

BRD3 BD1 = target: T5, BRD3 BD1 (Homo sapiens, UniProt Q15059); assay: Binding assay, BRD3 BD1 to acetylated histone H4 Peptide-Biotin (EPIgeneous Binding Domain Kit A); conditions: test compound at 300 nmol/L; for inhibition at 0.3 µM: read-out: Binding inhibition percentage BRD3 BD1
T5 construct: BRD2 BD1, BRD3 BD1 and BRD4 BD1 (Cisbio); purchased Cisbio
T5 sequence (Q15059 34-140 limits assumed): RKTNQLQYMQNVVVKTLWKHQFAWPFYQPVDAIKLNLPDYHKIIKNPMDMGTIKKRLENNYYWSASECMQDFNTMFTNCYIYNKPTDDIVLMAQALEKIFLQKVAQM
Method: as §1, §2, §3, §4

BRD3 BD2 = target: T6, BRD3 BD2 (Homo sapiens, UniProt Q15059); assay: Binding assay, BRD3 BD2 to acetylated histone H4 Peptide-Biotin (EPIgeneous Binding Domain Kit B); conditions: test compound at 300 nmol/L; for inhibition at 0.3 µM: read-out: Binding inhibition percentage BRD3 BD2
T6 construct: BRD2 BD2, BRD3 BD2 and BRD4 BD2 (Cisbio); purchased Cisbio
T6 sequence (Q15059 306-415 limits assumed): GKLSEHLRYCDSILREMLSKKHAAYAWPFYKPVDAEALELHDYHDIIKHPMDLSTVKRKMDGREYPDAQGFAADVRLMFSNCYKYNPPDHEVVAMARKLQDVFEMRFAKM
Method: as §5, §2, §3, §4

| SMILES | inhibition at 0.3 µM (BRD4 BD1) | inhibition at 0.3 µM (BRD2 BD1) | inhibition at 0.3 µM (BRD4 BD2) | inhibition at 0.3 µM (BRD2 BD2) | inhibition at 0.3 µM (BRD3 BD1) | inhibition at 0.3 µM (BRD3 BD2) | Binding inhibition percentage BRD4 BD1 (BRD4 BD1) | Binding inhibition percentage BRD2 BD1 (BRD2 BD1) | Binding inhibition percentage BRD4 BD2 (BRD4 BD2) | Binding inhibition percentage BRD2 BD2 (BRD2 BD2) | Binding inhibition percentage BRD3 BD1 (BRD3 BD1) | Binding inhibition percentage BRD3 BD2 (BRD3 BD2) |
| --- | --- | --- | --- | --- | --- | --- | --- | --- | --- | --- | --- | --- |
| CCn1c(=O)cc(N2CCOCC2)c2cc(-n3c(-c4ccccc4)cn(CCO)c3=O)ccc21 [Example 262, 1-ethyl-6-(3-(2-hydroxyethyl)-2-oxo-5-phenyl-2,3-dihydro-1H-imidazol-1-yl)-4-(morpholin-4-yl)quinolin-2(1H)-one] | 94% | 87% | 88% | 89% | 94% | 92% | – | – | – | – | – | – |
| CCCCn1cc(-c2ccccc2)n(-c2ccc3c(c2)c(N2CCOCC2)cc(=O)n3CC)c1=O [Example 264, 6-(3-butyl-2-oxo-5-phenyl-2,3-dihydro-1H-imidazol-1-yl)-1-ethyl-4-(morpholin-4-yl)quinolin-2(1H)-one] | 95% | 92% | 88% | 88% | 94% | 91% | – | – | – | – | – | – |
| CCCn1cc(-c2ccccc2)n(-c2ccc3c(c2)c(N2CCOCC2)cc(=O)n3CC)c1=O [Example 265, 1-ethyl-4-(morpholin-4-yl)-6-(2-oxo-5-phenyl-3-propyl-2,3-dihydro-1H-imidazol-1-yl)quinolin-2(1H)-one] | 94% | 91% | 87% | 89% | 95% | 92% | – | – | – | – | – | – |
| CCn1cc(-c2ccccc2)n(-c2ccc3c(c2)c(N2CCOCC2)cc(=O)n3CC)c1=O [Example 266, 1-ethyl-6-(3-ethyl-2-oxo-5-phenyl-2,3-dihydro-1H-imidazol-1-yl)-4-(morpholin-4-yl)quinolin-2(1H)-one] | 93% | 91% | 88% | 90% | 94% | 91% | – | – | – | – | – | – |
| CCn1c(=O)cc(C2CC2)c2cc(-n3c(-c4ccc(C(F)(F)F)cc4)cn(C)c3=O)ccc21 [Example 267, 4-cyclopropyl-1-ethyl-6-(3-methyl-2-oxo-5-(4-(trifluoromethyl)phenyl)-2,3-dihydro-1H-imidazol-1-yl)quinolin-2(1H)-one] | 68% | 32% | 87% | 87% | 53% | 90% | – | – | – | – | – | – |
| CCn1c(=O)cc(C2CC2)c2cc(-n3c(-c4ccc(C(F)(F)F)cc4)c[nH]c3=O)ccc21 [Example 268, 4-cyclopropyl-1-ethyl-6-(2-oxo-5-(4-(trifluoromethyl)phenyl)-2,3-dihydro-1H-imidazol-1-yl)quinolin-2(1H)-one] | 73% | 48% | 87% | 86% | 62% | 92% | – | – | – | – | – | – |
| CCn1c(=O)cc(C2CC2)c2cc(-n3c(-c4ccc(Cl)cc4)cn(C)c3=O)ccc21 [Example 269, 6-(5-(4-chlorophenyl)-3-methyl-2-oxo-2,3-dihydro-1H-imidazol-1-yl)-4-cyclopropyl-1-ethylquinolin-2(1H)-one] | 71% | 36% | 87% | 85% | 58% | 92% | – | – | – | – | – | – |
| CCn1c(=O)cc(N2CCOCC2)c2cc(-n3c(-c4ccc(C(F)(F)F)cc4)cn(C)c3=O)ccc21 [Example 270, 1-ethyl-6-(3-methyl-2-oxo-5-(4-(trifluoromethyl)phenyl)-2,3-dihydro-1H-imidazol-1-yl)-4-(morpholin-4-yl)quinolin-2(1H)-one] | 94% | 87% | 89% | 89% | 94% | 91% | – | – | – | – | – | – |
| CCn1c(=O)cc(C2CC2)c2cc(-n3c(-c4ccc(Cl)cc4)c[nH]c3=O)ccc21 [Example 271, 6-(5-(4-chlorophenyl)-2-oxo-2,3-dihydro-1H-imidazol-1-yl)-4-cyclopropyl-1-ethylquinolin-2(1H)-one] | 77% | 60% | 88% | 88% | 72% | 92% | – | – | – | – | – | – |
| CCn1c(=O)cc(N2CCOCC2)c2cc(-n3c(-c4ccc(C(F)(F)F)cc4)c[nH]c3=O)ccc21 [Example 272, 1-ethyl-6-(2-oxo-5-(4-(trifluoromethyl)phenyl)-2,3-dihydro-1H-imidazol-1-yl)-4-(morpholin-4-yl)quinolin-2(1H)-one] | 93% | 87% | 90% | 89% | 93% | 91% | – | – | – | – | – | – |
| CCn1c(=O)cc(N2CCOCC2)c2cc(-n3c(-c4ccc(C)cc4)cn(C)c3=O)ccc21 [Example 273, 1-ethyl-6-(3-methyl-5-(4-methylphenyl)-2-oxo-2,3-dihydro-1H-imidazol-1-yl)-4-(morpholin-4-yl)quinolin-2(1H)-one] | 94% | 93% | 89% | 90% | 94% | 93% | – | – | – | – | – | – |

Second part, the molecule after the results:

| inhibition at 0.3 µM (BRD4 BD1) | inhibition at 0.3 µM (BRD2 BD1) | inhibition at 0.3 µM (BRD4 BD2) | inhibition at 0.3 µM (BRD2 BD2) | inhibition at 0.3 µM (BRD3 BD1) | inhibition at 0.3 µM (BRD3 BD2) | Binding inhibition percentage BRD4 BD1 (BRD4 BD1) | Binding inhibition percentage BRD2 BD1 (BRD2 BD1) | Binding inhibition percentage BRD4 BD2 (BRD4 BD2) | Binding inhibition percentage BRD2 BD2 (BRD2 BD2) | Binding inhibition percentage BRD3 BD1 (BRD3 BD1) | Binding inhibition percentage BRD3 BD2 (BRD3 BD2) | SMILES |
| --- | --- | --- | --- | --- | --- | --- | --- | --- | --- | --- | --- | --- |
| 93% | 83% | 89% | 89% | 94% | 91% | – | – | – | – | – | – | CCn1c(=O)cc(C2CC2)c2cc(-c3cccnc3-c3ccccc3)ccc21 [Example 278, 4-cyclopropyl-1-ethyl-6-(2-phenylpyridin-3-yl)quinolin-2(1H)-one] |
| 93% | 91% | 89% | 88% | 93% | 91% | – | – | – | – | – | – | CCn1c(=O)cc(N2CCOCC2)c2cc(-c3cccnc3-c3ccccc3)ccc21 [Example 279, 1-ethyl-4-(morpholin-4-yl)-6-(2-phenylpyridin-3-yl)quinolin-2(1H)-one] |
| 93% | 83% | 90% | 88% | 90% | 92% | – | – | – | – | – | – | CCn1c(=O)cc(C2CC2)c2cc(N3C(=O)C(C)C(=O)N3c3ccccc3)ccc21 (stereo not drawn) [Example 280, 1-(4-cyclopropyl-1-ethyl-2-oxo-1,2-dihydroquinolin-6-yl)-4-methyl-2-phenylpyrazolidine-3,5-dione] |
| 94% | 87% | 88% | 89% | 92% | 91% | – | – | – | – | – | – | CCC1C(=O)N(c2ccccc2)N(c2ccc3c(c2)c(C2CC2)cc(=O)n3CC)C1=O (stereo not drawn) [Example 281, 1-(4-cyclopropyl-1-ethyl-2-oxo-1,2-dihydroquinolin-6-yl)-4-ethyl-2-phenylpyrazolidine-3,5-dione] |
| – | – | – | – | – | – | 95% | 94% | 89% | 90% | 94% | 91% | CCn1c(=O)cc(C2CC2)c2cc(-n3c(=O)cc(C)n3-c3ccccc3)ccc21 [Example 282a, 4-Cyclopropyl-1-ethyl-6-(3-methyl-5-oxo-2-phenyl-2,5-dihydro-1H-pyrazol-1-y 1)quinolin-2(1H)-one] |
